Test results as given in publication PMC12113668, “Discovery of Potential Scaffolds for Methionine Adenosyltransferase 2A (MAT2A) Inhibitors: Virtual Screening, Synthesis, and Biological Evaluation” (Molecules, 2025).
Where “and” joins values, the source holds several entries; their conditions need not be identical. Equal values may be shown once. Entries after “also recorded” stand apart in the source; their conditions may differ.

Experiments:
Parental HCT116 cells = assay: Cellular antiproliferation assay (CCK8), parental HCT116; type: cell-based; conditions: Homo sapiens, HCT-116, 72 h, mean ± SD
MTAP−/− HCT116 cells = assay: Cellular antiproliferation assay (CCK8), MTAP-deleted HCT116; type: cell-based; conditions: Homo sapiens, HCT-116, 72 h, mean ± SD
Experimental: Cell viability assays were performed using Cell Counting Kit-8 (CCK8). Briefly, the MTAP-deleted HCT116 cells (Horizon) were plated at 1000 cells per well in 96-well plates in RPMI-1640 medium with 10% FBS and 1% PS, and then incubated at 37 °C under a 5% CO2 atmosphere overnight. The stock solutions were serially diluted 3-fold in DMSO to obtain an eight-point dilution curve with final compound concentrations and test compounds added. After 72 h, 10 μL CCK-8 dye was added in each well and the cells were incubated for 2–4 h. […] was measured at 450 nm. Dose response curves were analyzed in GraphPad Prism 8.

[1] = tested on: HCT116 MTAP-deleted xenograft tumor; type: in vivo; conditions: for tumor growth inhibition (TGI): 30 mg/kg orally q.d. for 19 days; for tumor growth inhibition (TGI) / T/C (%) relative tumor proliferation rate: BALB/c nude mice, HCT116 MTAP−/− xenograft; for T/C (%) relative tumor proliferation rate / Tumor volume / Histopathological analysis (H&E staining) of tumor tissues: 30 mg/kg orally q.d.; for Tumor volume: mean ± SD, at end of study; for Histopathological analysis (H&E staining) of tumor tissues: xenograft tumor tissue
Experimental: The antitumor efficacy of compound 17 was evaluated in female BALB/c nude mice using a standardized tumor xenotransplantation model. Animals were maintained under specific-pathogen-free (SPF) conditions, and all experimental procedures adhered to institutional animal care protocols approved by the Institute of Radiation Medicine, the Chinese Academy of Medical Sciences, and Peking Union Medical College, complying with national guidelines for humane treatment. For tumor induction, 2 × 10^6 HCT-116 MTAP^−/− cells suspended in PBS were subcutaneously implanted into the right hind flank. Following a 7-day engraftment period, mice were stratified into three cohorts (n = 5/group) via block randomization performed by an independent researcher to minimize selection bias. Compound 17 was administered orally at 30 mg/kg once daily, using 5% DMSO + 10% Solutol HS-15 + 85% saline as the vehicle solution. The positive control AG-270 was dosed at the same regimen (30 mg/kg, orally, once daily) with identical vehicle composition. Tumor progression was monitored every other day through digital caliper measurements, with volumes calculated using the ellipsoid approximation formula: V = 0.5 × length × width^2.

[2] = Cytotoxicity of new compounds in HEK293A; type: cell-based; conditions: human, HEK293A cells
MAT2A = MAT2A (Homo sapiens, UniProt P31153); assay: MAT2A enzymatic assay (colorimetric Phosphate Assay Kit-PiColorLock); type: biochemical; conditions: for Maximum Inhibition (%): MAT2A enzymatic assay; for IC50: mean ± SD, at least three independent experiments, NA: no activity at 10 μM; for MAT2A inhibitory activity (in words): up to 10 μM
Experimental: The inhibition of MAT2A by each compound was determined using the colorimetric Phosphate Assay Kit-PiColorLock (#ab270004) as described previously. […] Assay measurements were performed in 1X buffer containing 50 mM Tris, 50 mM KCl, 10 mM MgCl2, and 0.05% Brij-35 (pH 8.0) in a final assay volume of 5 μL. A total of 2.5 μL of MAT2A protein with a final concentration of 20 μg/mL was added to each well of a 384 well assay plate containing 100 nL of each concentration of test compound dissolved in DMSO and incubated for 30 min at room temperature. ATP (100 μM final concentration) and L-Met (100 μM final concentration) were subsequently added and incubated for 30 min at room temperature. Then 20 μL of the phosphate assay kit substrate was added to each well, incubated at room temperature for 30 min, and then the absorbance was measured at 620 nm on a plate reader.

Chain of MAT2A (P31153 whole entry): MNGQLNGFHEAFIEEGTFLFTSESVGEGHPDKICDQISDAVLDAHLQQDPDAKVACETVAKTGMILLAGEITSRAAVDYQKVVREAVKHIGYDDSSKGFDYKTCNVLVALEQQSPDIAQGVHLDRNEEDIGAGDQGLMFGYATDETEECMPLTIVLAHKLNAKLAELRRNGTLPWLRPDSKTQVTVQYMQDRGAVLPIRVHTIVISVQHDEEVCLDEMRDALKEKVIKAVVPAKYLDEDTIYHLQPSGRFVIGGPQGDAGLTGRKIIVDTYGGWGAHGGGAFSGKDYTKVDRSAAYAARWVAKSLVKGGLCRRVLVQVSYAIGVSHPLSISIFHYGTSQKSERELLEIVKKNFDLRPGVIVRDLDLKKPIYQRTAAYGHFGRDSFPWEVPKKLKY

| SMILES | IC50 [2] [µM] | Maximum Inhibition (%) (MAT2A) | IC50 (MAT2A) | other results |
| --- | --- | --- | --- | --- |
| CN(C)c1nc(=O)n(-c2ccccc2)c2cc(Cl)ccc12 [6 (AZ-28), AZ-28, reference compound] |  |  |  | IC50 (Parental HCT116 cells): 1.9 ± 0.2 µM; IC50 (MTAP−/− HCT116 cells): 0.35 ± 0.13 µM |
| COc1ccc(-c2c(Nc3ccccn3)[nH]c3c(C4=CCCCC4)c(-c4ccccc4)nn3c2=O)cc1 [AG-270, reference compound] |  |  |  | tumor growth inhibition (TGI) [1]: 80.4%; T/C (%) relative tumor proliferation rate [1]: 22.9%; Tumor volume [1]: 351.9 ± 96.1 mm3; Histopathological analysis (H&E staining) of tumor tissues [1]: reduced cellular proliferation |
| CCOC(=O)c1[nH]c2c(c1-c1ccccc1)C(=O)CC(c1ccccc1)C2 (centres unmarked) [Compound 8, Ethyl 4-Oxo-3,6-diphenyl-4,5,6,7-tetrahydro-1H-indole-2-carboxylate] | > 100 | 47 | 6.8 ± 0.2 µM |  |
| CCOC(=O)c1[nH]c2c(c1Cc1ccccc1)C(=O)CC(c1ccccc1)C2 (centres unmarked) [Compound 9, Ethyl 3-Benzyl-4-oxo-6-phenyl-4,5,6,7-tetrahydro-1H-indole-2-carboxylate] | > 100 |  |  | MAT2A inhibitory activity (in words) (MAT2A): no detectable activity; also recorded: inactive |
| CCOC(=O)c1[nH]c2c(c1Cc1ccccc1)C(=O)CC(C)(C)C2 [Compound 10] | > 100 |  |  | MAT2A inhibitory activity (in words) (MAT2A): no detectable activity; also recorded: inactive |
| CCOC(=O)c1c(C)c(C(=O)Nc2ccc(OC)cc2)c(C)n1C [Compound 11] | > 100 |  | 15.6 ± 3.1 µM |  |
| CCn1cc(C(=O)Nc2ccc(OC)cc2)c2cccnc21 [Compound 12] | > 100 | 86 | 2.9 ± 0.2 µM |  |
| COc1ccc(NC(=O)c2cn(C)c3ccccc23)cc1 [Compound 13, N-(4-Methoxyphenyl)-1-methyl-1H-indole-3-carboxamide] | > 100 | 82 | 2.1 ± 0.6 µM |  |
| Cn1cc(C(=O)Nc2ccc3c(c2)OCO3)c2ccccc21 [Compound 14] | > 100 |  |  | MAT2A inhibitory activity (in words) (MAT2A): completely lost its binding affinity; also recorded: abolished activity entirely |
| COc1ccc(NC(=O)c2ccc3scnc3c2)cc1 [Compound 15, N-(4-Methoxyphenyl)benzo[D]thiazole-5-carboxamide] | > 100 | 80 | 0.91 ± 0.09 µM | IC50 (Parental HCT116 cells): > 10 µM; IC50 (MTAP−/− HCT116 cells): 2.2 ± 0.1 µM |
| COc1ccc(NC(=O)c2cccc3ncsc23)cc1 [Compound 16, N-(4-Methoxyphenyl)benzo[D]thiazole-7-carboxamide] | > 100 |  |  | MAT2A inhibitory activity (in words) (MAT2A): complete loss of binding affinity; also recorded: abolished activity entirely |
| COc1ccc(NC(=O)c2cccc(-n3cccc3)c2)cc1 [Compound 17, N-(4-Methoxyphenyl)-3-(1H-pyrrol-1-Yl)benzamide] | > 100 | 84 | 0.43 ± 0.06 µM | tumor growth inhibition (TGI) [1]: 58.4%; T/C (%) relative tumor proliferation rate [1]: 44.4%; Tumor volume [1]: 659.9 ± 100.2 mm3; Histopathological analysis (H&E staining) of tumor tissues [1]: reduced cellular proliferation; IC50 (Parental HCT116 cells): > 10 µM; IC50 (MTAP−/− HCT116 cells): 1.4 ± 0.3 µM |
| COc1ccc(NC(=O)c2cccc(N3CCCCC3)c2)cc1 [Compound 18, N-(4-Methoxyphenyl)-3-(piperidin-1-Yl)benzamide] | > 100 | 72 | 0.78 ± 0.15 µM |  |
| CCOC(=O)c1[nH]c2c(c1Cc1ccccc1OC)C(=O)CC(c1ccc(OC)cc1)C2 (centres unmarked) [Compound A10] | 55.6 ± 7.8 | 65 | 4.6 ± 0.3 µM |  |
| COc1ccc(NC(=O)c2cn(C)c3ncccc23)cc1F [Compound A11] | > 100 | 76 | 4.6 µM and 2.5 µM | IC50 (Parental HCT116 cells): > 10 µM; IC50 (MTAP−/− HCT116 cells): 6 ± 0.4 µM |
